Experiments:
[1] = test system: U87 human glioblastoma cell line; assay: MTT test of cell viability, 72 h treatment; format: cell-based; conditions: for IC50: MTT, 72 h; for Selectivity Index: ratio IC50 MRC-5 (4,000 cells per well) / IC50 U87
Procedure: (§1) The MTT test was used to evaluate the effect of the compounds on cell viability. The test relies on the reduction of tetrazolium salt (MTT) to formazan, which is catalyzed by the mitochondrial enzyme succinate dehydrogenase. The activity of succinate dehydrogenase, which is indicative of mitochondrial respiration, is taken as an indirect measure of the metabolic activity of the cell, and thus its viability. The MTT-formazan produced is a purple-colored product, whose absorbance is measured at a wavelength of 570 nm. • a) To determine the inhibition of cell growth by SC, different cell lines were exposed to increasing concentrations of SC (5, 10, 25, 50, and 100 μM). The cells were seeded in 96-well microtiter plates at a density of 2,000 cells per well for NCI-H460, NCI-H460/R, DLD1 and DLD1-TxR, and 4,000 cells per well for MRC-5, U87, U87-TxR, and U251 in 100 μL of the appropriate medium. Control cells that received no treatment were also seeded at the same time. After 24 h for adaptation, the cells were treated with various concentrations of SC. After 72 h of treatment, 0.2 mg/ml MTT was added to each well in the appropriate cell culture medium. After 4 h of incubation at 37° C. with 5% CO2, the medium was removed, and 100 μL of DMSO were added to each well, to dissolve the formazan. The absorbance of the samples was measured at 570 nm using a Multiskan Sky Microplate spectrophotometer (ThermoFisher Scientific, USA). The results were analyzed using GraphPad Prism 8.0.2. software, and the IC50 values were determined by non-linear regression. • b) To test the interaction between SC and DOX in terms of cytotoxicity in different cell lines, cells were seeded in 96-well microtiter plates at a density of 2,000 cells per well for NCI-H460, NCI-H460/R, DLD1 and DLD1-TxR, and 4,000 cells per well for MRC-5, U87, U87-TxR, and U251 in 100 μl of the appropriate medium. SC (10 and 20 μM) was combined with increasing concentrations of DOX (20, 50, 100, 200, and 500 nM). The cells were treated with the simultaneous combinations for 72 h. After this period, 0.2 mg/ml MTT was added to each well, followed by 4 hours of incubation at 37° C. with 5% CO2. The medium was then removed, and DMSO was added to each well to dissolve the formazan.
(§2) The analysis was carried out using GraphPad Prism software version 8.0.2 to determine the nature of the interaction, namely synergistic, antagonistic, or additive, between compounds. This was done using the computer software CalcuSyn, which is based on the combination index method. The method takes into account the concentration of compounds, the individual effect of each compound, as well as the effect of two compounds in combination. The values of the combination indices (CI) describe the nature of the interaction: Cl<0.9 indicates synergism, Cl>1.1 indicates antagonism, and Cl=0.9-1.1 indicates an additive effect. • c) To compare the resistance and selectivity profiles among SC, DOX, CON1, and CON2, human glioblastoma cell lines U87, U87-TxR, and MRC-5 were seeded at a density of 4,000 cells per well in 100 μL of the appropriate medium. In contrast, NCI-H460, NCI-H460/R, and MRC-5 were seeded at a density of 2,000 cells per well in 100 μL of the proper medium. The effect of SC derivatives LIG1 and LIG2 was also examined. The range of concentrations differed among the cell lines and the compounds. For LIG1 and LIG2, the range of concentrations for all cell lines was 50, 100, 200, 300, and 400 μM, while the same range was used for the MRC-5 in the case of SC, CON1, and CON2. DOX concentrations ranged 0.1, 0.25, 0.5, 1, and 2.5 μM for U87 and NCI-H460, and 0.25, 0.5, 1, 2.5, and 5 μM for U87-TxR, NCI-H460/R, and MRC-5. […] concentrations used for SC, CON1, and CON2 treatments varied in the range 1, 2.5, 5, 10, 25, 50, and 100 μM. The treatment lasted 72 h. After the treatment period, 0.2 mg/ml MTT in the appropriate cell culture medium was added to each well. […]

[2] = test system: NCI-H460 human non-small cell lung carcinoma cell line; assay: MTT test of cell viability, 72 h treatment; format: cell-based; conditions: for IC50: MTT, 72 h; for Selectivity Index: ratio IC50 MRC-5 (2,000 cells per well) / IC50 NCI-H460
Procedure: as §1, §2

[3] = test system: MRC-5 human lung fibroblast cell line; assay: MTT test of cell viability, 72 h treatment; format: cell-based
Procedure: as §1
(§3) The absorbance of the samples was measured at 570 nm using a Multiskan Sky Microplate spectrophotometer.
as §2, with “h.” for “h. After the treatment period, 0.2 mg/ml MTT in the appropriate cell culture medium was added to each well.”

[4] = test system: U87-TxR resistant human glioblastoma cell line; assay: MTT test of cell viability, 72 h treatment; format: cell-based; conditions: for IC50: MTT, 72 h, MDR line; for Relative Resistance: ratio IC50 U87-TxR / IC50 U87
Procedure: as §1, §3
as §2, with “h.” for “h. After the treatment period, 0.2 mg/ml MTT in the appropriate cell culture medium was added to each well.”

[5] = test system: NCI-H460/R resistant human non-small cell lung carcinoma cell line; assay: MTT test of cell viability, 72 h treatment; format: cell-based; conditions: for IC50: MTT, 72 h, MDR line; for Relative Resistance: ratio IC50 NCI-H460/R / IC50 NCI-H460
Procedure: as §1, §3
as §2, with “h.” for “h. After the treatment period, 0.2 mg/ml MTT in the appropriate cell culture medium was added to each well.”

[6] = Zetasizer measurement of size, polydispersity and zeta potential; format: physicochemical; conditions: 25° C., diluted 100 times with ultrapure water, mean of three
Procedure: The Malvern Zetasizer Nano ZS (Malvern Instruments, United Kingdom) was used to analyze the physico-chemical stability characteristics of conjugates. The measurement range was from 0.6 nm up to […]. The mean size of conjugates, the polydispersity index (PDI) and zeta potential were measured. All measurements were taken at a temperature of 25° C. and each sample was diluted 100 times with ultrapure water. The measurements were repeated three times, and the results were presented as the mean value. PDI is a parameter used to define the size range of particles. The term “polydispersity” (or “dispersity” as recommended by IUPAC) describes the degree of non-uniformity of a size distribution of particles. Zeta potential represents the surface charge of nanoparticles and indicates their long-term stability.

[7] = Homo sapiens, MRC5, 72 h, 2,000 cells per well (non-small cell carcinoma experiments)
[8] = Homo sapiens, MRC5, 72 h, 4,000 cells per well (glioblastoma experiments)

IC50 ([1]; Homo sapiens) [µM] | IC50 ([2]; Homo sapiens, NCI-H460) [µM] | IC50 ([4]; Homo sapiens, U87-TxR) [µM] | IC50 ([5]; Homo sapiens, NCI-H460) [µM] | Molecule | Selectivity Index [1] | Selectivity Index [2] | IC50 [3, 7] [µM] | IC50 [3, 8] [µM] | Relative Resistance [4] | Relative Resistance [5] | IC50 [1] [µM] | IC50 [2] [µM] | Z-Average [6] [nm·days] | IC50 ([3]; 2,000 cells per well (non-small cell carcinoma experiments)) [µM] | IC50 ([3]; 4,000 cells per well (glioblastoma experiments)) [µM] | IC50 [4] [µM] | IC50 [5] [µM]
74.4 | 41.7 | 61.7 | 55.2 | CC1(C)CCC[C@]2(C)[C@@H](CC[C@@](C)(O)/C=C/c3ccc(CNCCCNC(=O)CCC(=O)O)cc3)[C@](C)(O)CC[C@@H]12 [LIG1, 4-((3-((4-((R,E)-3-hydroxy-5-((1R,2R,4aS,8aS)-2-hydroxy-2,5,5,8a-tetramethyldecahydronaphthalen-1-yl)-3-methylpent-1-en-1-yl)benzyl)amino)propyl)amino)-4-oxobutanoic acid] | 3.2 | 9.4 | 393 | 236 | 0.8 | 1.3 |  |  |  |  |  |  | 
345 | 99.6 | 273 | 110 | CC1(C)CCC[C@]2(C)[C@@H](CC[C@@](C)(O)/C=C/c3ccc(CNCCCCCCNC(=O)CCC(=O)O)cc3)[C@](C)(O)CC[C@@H]12 [LIG2, 4-((6-((4-((R,E)-3-hydroxy-5-((1R,2R,4aS,8aS)-2-hydroxy-2,5,5,8a-tetramethyldecahydronaphthalen-1-yl)-3-methylpent-1-en-1-yl)benzyl)amino)hexyl)amino)-4-oxobutanoic acid] | >1.2 | 6.1 | 610 | > 400 | 0.8 | 1.1 |  |  |  |  |  |  | 
 |  |  |  | N1-((2S,3S,4S,6R)-3-hydroxy-2-methyl-6-(((1S,3S)-3,5,12-trihydroxy-3-(2-hydroxyacetyl)-10-methoxy-6,11-dioxo-1,2,3,4,6,11-hexahydrotetracen-1-yl)oxy)tetrahydro-2H-pyran-4-yl)-N4-(6-((4-((R,E)-3-hydroxy-5-((1R,2R,4aS,8aS)-2-hydroxy-2,5,5,8a-tetramethyldecahydronaphthalen-1-yl)-3-methylpent-1-en-1-yl)benzyl)amino)hexyl) succinamide [CON2] | >64.5 | 5.2 |  |  | 4.2 | 3.3 | 6.2 | 25.1 | 180 ± 14.7 | 131 | > 400 | 26.2 | 83.3

Reference: patent publication US20260174860A1, “HYBRID COMPOUNDS OF SCLAREOL AND DOXORUBICIN, THEIR SYNTHESIS AND APPLICATION” (INSTITUTE FOR BIOLOGICAL RESEARCH "SINISA STANKOVIC" - …, priority 2023, published 2026)
